Patent US20120022099A1, “NOVEL POLYMORPHIC FORMS OF AN AZABICYCLO-TRIFLUOROMETHYL BENZAMIDE DERIVATIVE” (SANOFI, priority 2008, published 2012)

Legend:
[1] = test system: NMDA receptor; conditions: cited from earlier work
[2] = test system: DBA/2J mice; conditions: strain with low basal pre-pulse inhibition; cited from earlier work
[3] = biological target: T1, GLYT-1 (Homo sapiens, UniProt P48067); conditions: in vitro; cited from earlier work
T1 sequence (P48067 1-706): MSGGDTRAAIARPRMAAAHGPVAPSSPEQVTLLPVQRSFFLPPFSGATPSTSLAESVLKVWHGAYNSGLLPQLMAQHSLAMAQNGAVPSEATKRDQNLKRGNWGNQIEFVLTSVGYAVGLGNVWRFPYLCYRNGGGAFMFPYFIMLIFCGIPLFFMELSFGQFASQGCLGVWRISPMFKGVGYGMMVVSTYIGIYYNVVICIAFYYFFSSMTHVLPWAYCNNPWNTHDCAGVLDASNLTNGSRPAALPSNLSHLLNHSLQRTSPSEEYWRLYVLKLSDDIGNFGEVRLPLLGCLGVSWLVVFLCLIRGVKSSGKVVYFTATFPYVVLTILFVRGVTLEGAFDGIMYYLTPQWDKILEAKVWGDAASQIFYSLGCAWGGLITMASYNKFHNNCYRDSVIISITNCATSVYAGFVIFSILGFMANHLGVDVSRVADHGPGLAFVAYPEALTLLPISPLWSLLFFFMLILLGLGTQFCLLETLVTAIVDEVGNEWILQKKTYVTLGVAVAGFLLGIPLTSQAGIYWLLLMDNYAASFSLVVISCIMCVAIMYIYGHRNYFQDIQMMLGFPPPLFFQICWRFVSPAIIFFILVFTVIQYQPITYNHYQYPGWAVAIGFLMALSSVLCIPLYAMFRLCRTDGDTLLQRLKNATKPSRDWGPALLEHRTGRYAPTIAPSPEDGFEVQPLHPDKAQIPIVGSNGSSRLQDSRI

[4] = test system: c-Fos immunoreactivity; conditions: in vivo; cited from earlier work
[5] = test system: hippocampal dentate gyrus; conditions: induced by high-frequency electrical stimulation of the afferent perforant pathway; cited from earlier work
[6] = Stability of the solid form, conversion between polymorphs; type: physicochemical; conditions: for stability of the polymorphic form: hydrochloride
[7] = Thermal decomposition on drying by heating; type: physicochemical; conditions: drying through heating to release residual solvents
[8] = Solubility in water

## CN(CCC(Oc1ccc(-c2ccccc2)cc1)c1ccc(F)cc1)CC(=O)O (single isomer, unassigned; (+)) [(+)-NFPS, (+)N-[3-(4′-fluorophenyl)-3-(4′-phenylphenoxy)-propyl]sarcosine]
[1]
  NMDA-induced [3H]GABA release: significantly stimulated
[2]
  pre-pulse inhibition of the acoustic startle response: enhanced
[3]
  activity relative to the racemic compound: greater than 10 fold
[4]
  pattern of c-Fos immunoreactivity: comparable with the atypical anti-psychotic clozapine

## CN(CCC(Oc1ccc(-c2ccccc2)cc1)c1ccc(F)cc1)CC(=O)O (racemic) [(+/−)-NFPS, N-[3-(4′-fluorophenyl)-3-(4′-phenylphenoxy)propyl]sarcosine]
[5]
  long-term potentiation: significantly enhanced

## Cl.O=C(N[C@@H](c1ccccc1)[C@@H]1CC2CCN1CC2)c1c(Cl)ccc(C(F)(F)F)c1Cl [Form A, N—[(S)-2(S)-1-azabicyclo[2.2.2]oct-2-yl(phenyl)methyl]-2,6-dichloro-3-(trifluoromethyl)benzamide hydrochloride]
[6]; listed as polymorph A
  stability of the polymorphic form: highly stable
[7]
  temperature above which thermal decomposition of the compound occurs: above 220 °C

## Cl.O=C(N[C@@H](c1ccccc1)[C@@H]1CC2CCN1CC2)c1c(Cl)ccc(C(F)(F)F)c1Cl [Form B, N—[(S)-2(S)-1-azabicyclo[2.2.2]oct-2-yl(phenyl)methyl]-2,6-dichloro-3-(trifluoromethyl)benzamide hydrochloride]
[6]; aqueous system
  conversion to polymorph A: readily converts to the desired polymorph A
[6]
  stability of the polymorphic form: lower stability than Form A
[8]
  solubility: > 200 mg/mL
[8]; 45° C.
  solubility in water: highly soluble in water
